Measured values reported in patent US20220323406A1, “METHODS AND COMPOSITIONS FOR DIFFERENTIATING STEM CELLS” (Massachusetts Institute of Technology, priority 2019, published 2022).
Counter-ions that a name gives are not always drawn.

What was measured:
Settings in all cases: primary screen
[1] = system: ENR+CD organoids (ISC to Paneth cell differentiation); assay: Primary screen: CCh-stimulated lysozyme secretion LYZ.S, 2.5-D 384-well ENR+CD organoid differentiation; type: cell-based, mouse
Source text: (§1) High-throughput screening.

[2] = system: ENR+CD organoids (ISC to Paneth cell differentiation); assay: Primary screen: basal (non-stimulated) lysozyme secretion LYZ.NS, 2.5-D 384-well ENR+CD organoid differentiation; type: cell-based, mouse
Source text: as §1

[3] = system: ENR+CD organoids; assay: Primary screen: ATP (CellTiter-Glo 3D, CTG) cell number/viability, 2.5-D 384-well ENR+CD organoids;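 also: compounds given at plating and again on day 3 over a 6-day differentiation from ENR+CV stem-cell-enriched precursors, ATP measured on day 6, plate median as control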

Compound | Dose.FC.LYZ.S (log2 fold change) ([1]; dose 0.08 uM) | Dose.FC.LYZ.S (log2 fold change) ([1]; dose 0.40 uM) | Dose.FC.LYZ.S (log2 fold change) ([1]; dose 2.00 uM) | Dose.FC.LYZ.S (log2 fold change) ([1]; dose 10.00 uM) | Dose.FC.LYZ.NS (log2 fold change) ([2]; dose 0.08 uM) | Z.LYZ.NS (standard z score) ([2]; dose 0.08 uM) | Dose.FC.LYZ.NS (log2 fold change) ([2]; dose 0.40 uM) | Z.LYZ.NS (standard z score) ([2]; dose 0.40 uM) | Dose.FC.LYZ.NS (log2 fold change) ([2]; dose 2.00 uM) | Z.LYZ.NS (standard z score) ([2]; dose 2.00 uM) | Dose.FC.LYZ.NS (log2 fold change) ([2]; dose 10.00 uM) | Z.LYZ.NS (standard z score) ([2]; dose 10.00 uM) | Dose.FC.CTG (log2 fold change) ([3]; dose 0.08 uM) | Z.CTG (standard z score) ([3]; dose 0.08 uM) | Dose.FC.CTG (log2 fold change) ([3]; dose 0.40 uM) | Z.CTG (standard z score) ([3]; dose 0.40 uM) | Dose.FC.CTG (log2 fold change) ([3]; dose 2.00 uM) | Z.CTG (standard z score) ([3]; dose 2.00 uM) | Dose.FC.CTG (log2 fold change) ([3]; dose 10.00 uM) | Z.CTG (standard z score) ([3]; dose 10.00 uM)
O=C1[C@H](Cc2ccc(O)cc2)N2C(=O)CCN(C(=O)NCc3ccccc3)[C@H]2CN1Cc1cccc2ccccc12 [ICG-001] | 0.163 | 0.204 | 0.017 | −0.124 | 0.037 | 0.324 | 0.037 | 0.321 | 0.045 | 0.396 | −0.125 | −1.093 | 0.104 | 0.249 | 0.104 | 0.248 | 0.143 | 0.343 | −0.416 | −0.993
O=C(c1ccc(Nc2nccc(-c3cc4ccccc4s3)n2)cc1)N1CCC(N2CCCC2)CC1 [IKK-16 (IKK Inhibitor VII)] | 0.092 | 0.028 | −0.142 | −0.383 | 0.104 | 0.903 | 0.020 | 0.176 | −0.081 | −0.708 | −0.291 | −2.531 | 0.058 | 0.139 | −0.051 | −0.122 | −0.431 | −1.029 | −0.950 | −2.268
O=C(Nc1cc(C(F)(F)F)cc(C(F)(F)F)c1)c1cc(Cl)ccc1O [IMD 0354] | −0.047 | 0.043 | 0.083 | −0.128 | 0.004 | 0.035 | 0.101 | 0.880 | 0.097 | 0.847 | −0.089 | −0.777 | −0.007 | – | 0.117 | – | 0.076 | – | −0.480 | –
O=C(O)CNC(=O)c1c(O)c2ccccc2n(Cc2ccccc2)c1=O [IOX2] | 0.047 | 0.071 | 0.001 | −0.049 | 0.029 | 0.254 | 0.028 | 0.246 | 0.043 | 0.376 | −0.045 | −0.388 | 0.149 | 0.356 | 0.078 | 0.185 | 0.097 | 0.232 | 0.001 | 0.002
Oc1ccc2ccccc2c1SSc1c(O)ccc2ccccc12 [IPA-3] | 0.064 | −0.031 | 0.067 | −0.054 | 0.004 | 0.031 | 0.003 | 0.028 | −0.001 | −0.010 | −0.021 | −0.186 | 0.219 | 0.524 | −0.332 | −0.793 | −0.084 | −0.202 | −0.054 | −0.128
C=CC(=O)N1CCC[C@@H](n2nc(-c3ccc(Oc4ccccc4)cc3)c3c(N)ncnc32)C1 [Ibrutinib (PCI-32765)] | −0.139 | −0.206 | – | −0.312 | – | −0.619 | – | −1.225 | – | −1.763 | – | −1.737 | – | −0.065 | – | −1.112 | – | −1.244 | – | −2.224
C#Cc1cccc(Nc2ncnc3cc4c(cc23)OCCOCCOCCO4)c1 [Icotinib] | 0.094 | −0.090 | −0.243 | −0.419 | 0.029 | 0.255 | −0.073 | −0.632 | −0.133 | −1.160 | −0.289 | −2.518 | −0.020 | – | −0.061 | – | −0.406 | – | −1.068 | –
CNC(=O)[C@H](Cc1c[nH]c2ccccc12)NC(=O)[C@@H](CC(=O)NO)CC(C)C [Ilomastat (GM6001, Galardin)] | 0.214 | 0.117 | 0.024 | −0.078 | 0.055 | 0.482 | −0.011 | −0.092 | 0.007 | 0.064 | −0.106 | −0.919 | 0.197 | 0.470 | 0.163 | 0.389 | 0.091 | 0.216 | −0.110 | −0.264
Cc1ccc(NC(=O)c2ccc(CN3CCN(C)CC3)cc2)cc1Nc1nccc(-c2cccnc2)n1 [Imatinib (STI571)] | 0.000 | 0.038 | −0.001 | −0.037 | 0.033 | 0.284 | 0.012 | 0.104 | 0.025 | 0.217 | −0.038 | −0.333 | −0.150 | −0.357 | 0.079 | 0.188 | 0.056 | 0.135 | −0.034 | −0.082
CCOC(=O)[C@H](CCc1ccccc1)N[C@@H](C)C(=O)N1C(=O)N(C)C[C@H]1C(=O)O [Imidapril HCl] | −0.042 | 0.109 | −0.035 | −0.075 | −0.006 | −0.049 | 0.000 | 0.004 | 0.014 | 0.121 | −0.081 | −0.706 | −0.333 | – | −0.148 | – | −0.236 | – | −0.227 | –
NC(=O)c1ccc(I)c([N+](=O)[O-])c1 [Iniparib (B5I-201)] | 0.032 | – | – | – | 0.042 | 0.364 | – | – | – | – | – | – | 0.339 | 0.810 | – | – | – | – | – | –
NC(=O)c1ccc(I)c([N+](=O)[O-])c1 [Iniparib (BSI-201)] | – | 0.035 | −0.001 | −0.010 | – | – | 0.000 | 0.003 | 0.016 | 0.138 | −0.016 | −0.139 | – | – | 0.181 | 0.432 | 0.157 | 0.375 | 0.244 | 0.583
CCc1c2c(nc3ccc(OC(=O)N4CCC(N5CCCCC5)CC4)cc13)-c1cc3c(c(=O)n1C2)COC(=O)[C@]3(O)CC [Irinotecan HCl Trihydrate] | −0.040 | −0.158 | −0.293 | −0.367 | −0.019 | −0.162 | −0.092 | −0.805 | −0.221 | −1.925 | −0.272 | −2.368 | −0.083 | – | −0.205 | – | −0.317 | – | −0.588 | –
